Molecular target: T1, Aminopeptidase B (Rattus norvegicus, UniProt O09175)
T1 sequence (O09175 whole entry): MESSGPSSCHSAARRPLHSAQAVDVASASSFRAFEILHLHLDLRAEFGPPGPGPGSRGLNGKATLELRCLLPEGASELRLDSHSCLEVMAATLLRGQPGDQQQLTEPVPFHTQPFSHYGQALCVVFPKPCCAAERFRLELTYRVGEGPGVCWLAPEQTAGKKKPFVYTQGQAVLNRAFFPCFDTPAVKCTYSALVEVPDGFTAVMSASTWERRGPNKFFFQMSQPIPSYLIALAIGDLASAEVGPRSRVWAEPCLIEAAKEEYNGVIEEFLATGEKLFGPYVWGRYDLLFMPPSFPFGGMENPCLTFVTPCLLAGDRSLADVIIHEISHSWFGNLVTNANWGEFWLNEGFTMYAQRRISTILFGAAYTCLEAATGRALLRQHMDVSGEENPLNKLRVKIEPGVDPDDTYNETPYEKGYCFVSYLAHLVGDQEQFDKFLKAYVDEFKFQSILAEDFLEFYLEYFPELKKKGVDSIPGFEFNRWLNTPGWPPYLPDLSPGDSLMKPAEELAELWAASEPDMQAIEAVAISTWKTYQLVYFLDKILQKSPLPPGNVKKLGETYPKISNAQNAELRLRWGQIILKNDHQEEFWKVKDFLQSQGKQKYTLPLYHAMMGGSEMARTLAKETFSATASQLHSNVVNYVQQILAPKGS
Assay: Inhibition of rat liver aminopeptidase B using 0.2 mM […] by colorimetry

- IC50: 640 µM
SMILES: CC(C)CCNC(=O)[C@@H](O)[C@H](N)Cc1ccccc1
